Consider 25 molecules from patent US10858362B2, “Imidazopyrazinones as PDE1 inhibitors” (H. Lundbeck A/S, priority 2015, dated 2020).

Holding throughout (type): biochemical
Test [1] deals with PDE1C (Homo sapiens (Human), UniProt Q14123). As to the kind of experiment: PDE1 inhibition assay, PDE1C. To be noted: for IC50: 15 nM tritium labelled cAMP. The protocol:
(§1) Reactions were initiated by addition of the cyclic nucleotide substrate, and reactions were allowed to proceed for 1 h at room temperature before being terminated through mixing with 20 μL (0.2 mg) yttrium silicate SPA beads (PerkinElmer). The beads were allowed to settle for 1 h in the dark before the plates were counted in a Wallac 1450 Microbeta counter.

Test [2] addresses PDE1A (Homo sapiens (Human), UniProt P54750). As to the kind of experiment: PDE1 inhibition assay, PDE1A. Conditions: for IC50: 15 nM tritium labelled cAMP; for inhibition at 2 µM: read-out: PDE1A, % inhibition (at 2 μM). The protocol:
Reactions were initiated by addition of the cyclic nucleotide substrate, and reactions were allowed to proceed for 1 h at room temperature before being terminated through mixing with 20 μL (0.2 mg) yttrium silicate SPA beads (PerkinElmer).

The target in test [3] is PDE9 (Homo sapiens (Human), UniProt O76083). As to the kind of experiment: PDE9 inhibition assay. On the procedure: A PDE9 assay may for example, be performed as follows: The assay is performed in 60 μL samples containing a fixed amount of the relevant PDE enzyme (sufficient to convert 20-25% of the cyclic nucleotide substrate), a buffer (50 mM HEPES7.6; 10 mM MgCl2; 0.02% Tween20), 0.1 mg/ml BSA, 225 pCi of ^3H-labelled cyclic nucleotide substrate, tritium labeled cAMP to a final concentration of 5 nM and varying amounts of inhibitors. Reactions are initiated by addition of the cyclic nucleotide substrate, and reactions are allowed to proceed for one hr at room temperature before being terminated through mixing with 15 μL 8 mg/mL yttrium silicate SPA beads (Amersham). The beads are allowed to settle for one hr in the dark before the plates are counted in a Wallac 1450 Microbeta counter.
In the context of the present invention the assay was performed in 60 μL assay buffer (50 mM HEPES pH 7.6; 10 mM MgCl2; 0.02% Tween20) containing enough PDE9 to convert 20-25% of 10 nM ^3H-cAMP and varying amounts of inhibitors. Following a 1 hr incubation the reactions were terminated by addition of 15 μL 8 mg/mL yttrium silicate SPA beads (Amersham). The beads were allowed to settle for one hr in the dark before the plates were counted in a Wallac 1450 Microbeta counter.

The target of test [4] is PDE1B (Homo sapiens (Human), UniProt Q01064). As to the kind of experiment: PDE1 inhibition assay, PDE1B. To be noted: for IC50: 15 nM tritium labelled cAMP; for inhibition at 2 µM: read-out: PDE1B, % inhibition (at 2 μM). The protocol: as §1
Chain of PDE1B (Q01064 whole entry): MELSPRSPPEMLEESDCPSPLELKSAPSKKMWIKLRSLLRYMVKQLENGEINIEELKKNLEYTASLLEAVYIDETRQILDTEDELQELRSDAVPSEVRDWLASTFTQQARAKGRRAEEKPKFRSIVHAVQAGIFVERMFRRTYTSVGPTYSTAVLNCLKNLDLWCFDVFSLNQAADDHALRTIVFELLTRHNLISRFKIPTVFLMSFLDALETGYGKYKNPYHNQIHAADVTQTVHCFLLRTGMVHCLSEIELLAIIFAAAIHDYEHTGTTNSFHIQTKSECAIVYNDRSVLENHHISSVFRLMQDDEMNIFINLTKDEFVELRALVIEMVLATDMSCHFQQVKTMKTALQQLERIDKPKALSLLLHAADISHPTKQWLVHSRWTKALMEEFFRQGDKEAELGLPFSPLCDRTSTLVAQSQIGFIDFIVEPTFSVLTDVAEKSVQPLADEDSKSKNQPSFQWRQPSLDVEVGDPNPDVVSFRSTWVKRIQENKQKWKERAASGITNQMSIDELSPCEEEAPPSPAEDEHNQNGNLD

Chain of PDE9 (O76083 whole entry): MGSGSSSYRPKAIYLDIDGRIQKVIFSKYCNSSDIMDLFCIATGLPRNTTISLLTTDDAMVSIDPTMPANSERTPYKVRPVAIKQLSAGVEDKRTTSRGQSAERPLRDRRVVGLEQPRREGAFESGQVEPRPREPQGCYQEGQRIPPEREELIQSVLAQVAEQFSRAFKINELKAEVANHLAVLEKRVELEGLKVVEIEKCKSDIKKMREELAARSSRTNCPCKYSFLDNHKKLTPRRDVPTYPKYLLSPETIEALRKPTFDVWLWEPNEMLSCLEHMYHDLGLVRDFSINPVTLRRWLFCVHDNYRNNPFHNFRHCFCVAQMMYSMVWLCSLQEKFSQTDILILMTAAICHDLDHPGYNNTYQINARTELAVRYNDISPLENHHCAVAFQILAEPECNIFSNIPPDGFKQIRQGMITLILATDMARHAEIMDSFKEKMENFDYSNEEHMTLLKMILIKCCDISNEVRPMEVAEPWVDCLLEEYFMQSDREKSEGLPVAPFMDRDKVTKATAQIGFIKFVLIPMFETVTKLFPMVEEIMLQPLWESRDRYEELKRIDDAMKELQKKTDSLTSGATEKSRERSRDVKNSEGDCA
Chain of PDE1A (P54750 whole entry): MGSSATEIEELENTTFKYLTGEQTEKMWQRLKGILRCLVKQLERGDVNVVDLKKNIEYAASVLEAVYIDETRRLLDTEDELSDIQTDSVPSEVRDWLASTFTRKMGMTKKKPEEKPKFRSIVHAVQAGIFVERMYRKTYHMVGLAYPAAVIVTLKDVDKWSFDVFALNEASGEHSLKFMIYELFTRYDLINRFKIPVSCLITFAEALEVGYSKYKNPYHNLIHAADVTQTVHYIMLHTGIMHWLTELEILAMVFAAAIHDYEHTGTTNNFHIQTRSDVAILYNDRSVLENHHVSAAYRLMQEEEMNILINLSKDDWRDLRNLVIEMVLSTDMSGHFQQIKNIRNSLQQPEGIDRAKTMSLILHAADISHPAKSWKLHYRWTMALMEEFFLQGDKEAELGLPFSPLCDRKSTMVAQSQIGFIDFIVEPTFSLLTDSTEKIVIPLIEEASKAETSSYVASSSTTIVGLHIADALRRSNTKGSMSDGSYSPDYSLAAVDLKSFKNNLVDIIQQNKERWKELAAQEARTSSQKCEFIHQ
Chain of PDE1C (Q14123 whole entry): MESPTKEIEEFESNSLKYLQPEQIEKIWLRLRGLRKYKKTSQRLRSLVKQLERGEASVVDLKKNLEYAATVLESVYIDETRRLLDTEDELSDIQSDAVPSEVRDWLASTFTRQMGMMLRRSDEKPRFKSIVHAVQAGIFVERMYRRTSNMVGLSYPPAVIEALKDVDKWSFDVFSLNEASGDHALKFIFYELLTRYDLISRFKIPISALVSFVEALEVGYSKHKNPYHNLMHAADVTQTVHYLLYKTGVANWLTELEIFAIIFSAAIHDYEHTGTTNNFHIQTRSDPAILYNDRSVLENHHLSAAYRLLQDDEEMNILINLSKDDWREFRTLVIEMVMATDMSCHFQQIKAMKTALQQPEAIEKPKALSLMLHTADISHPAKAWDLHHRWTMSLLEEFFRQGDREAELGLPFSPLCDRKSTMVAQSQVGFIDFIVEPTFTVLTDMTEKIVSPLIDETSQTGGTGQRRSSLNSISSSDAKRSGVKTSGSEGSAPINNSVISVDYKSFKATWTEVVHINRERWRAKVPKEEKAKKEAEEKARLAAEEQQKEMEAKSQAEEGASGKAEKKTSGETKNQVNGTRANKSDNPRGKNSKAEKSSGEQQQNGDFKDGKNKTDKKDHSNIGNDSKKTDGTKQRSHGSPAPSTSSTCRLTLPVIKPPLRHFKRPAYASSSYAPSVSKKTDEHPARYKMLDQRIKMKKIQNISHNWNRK

For `Cc1cn2c([C@H]3C[C@@H]3C)ncc2c(=O)n1Cc1cccc(F)c1` (single isomer, unassigned; isomer 3) [35, isomer 3], the IC50 turned out to be 8 nM in test [1], 82 nM in test [2] and 18 nM in test [4]. Further, the “% inhibition of PDE9 at 10 microM” value in test [3] stood at 0%.

On to `Cc1cn2c([C@H]3C[C@H]3C)ncc2c(=O)n1Cc1cccc(F)c1` (single isomer, unassigned; isomer 4) [35, isomer 4], for which the IC50 in test [1] turned out to be 85 nM; in test [4], 360 nM. Moreover, in test [2] (at 1 μM), the “PDE1A, % inhibition (at 1 μM)” value was found to be 43%. In test [3], the “% inhibition of PDE9 at 10 microM” value stood at 5%.

Regarding `Cc1cn2c([C@H]3CCO[C@H]3C)ncc2c(=O)n1Cc1cccc(F)c1` (single isomer, unassigned; isomer 4) [36, isomer 4], in test [1] (at 1 μM), the “PDE1C, % inhibition (at 1 μM)” value is recorded as 40%. Besides, the results for the IC50 in test [2] and in test [4] were 51 nM and 520 nM, respectively. Also, the “% inhibition of PDE9 at 10 microM” value in test [3] was 11%.

With `Cc1cn2c(C3CCOCC3)ncc2c(=O)n1C[C@H]1CC[C@@H](C)CC1` [66, cis], the IC50 in test [1] worked out at 4 nM; in test [2], 7 nM; in test [4] it was 6 nM. For the same molecule, the “% inhibition of PDE9 at 10 microM” value in test [3] is listed as −3%.

In the case of `Cc1cn2c(C3CCOCC3)ncc2c(=O)n1C[C@H]1CC[C@H](C)CC1` [66, trans], the IC50 in test [1] is 46 nM; in test [2], 35 nM; in test [4], 11 nM. Also, in test [3], the “% inhibition of PDE9 at 10 microM” value is −2%.

As for `CCCc1ncc2c(=O)n(Cc3cccc(F)c3)ccn12` [Example 1, 7-(3-Fluorobenzyl)-3-propylimidazo[1,5-a]pyrazin-8(7H)-one], the IC50 in test [1] is 300 nM; in test [2], 801 nM; in test [4], 790 nM. Besides, the inhibition at 10 µM in test [3] was -12%.

Take `O=c1c2cnc(C3CCOCC3)n2cc(Cc2ccccc2)n1Cc1cccc(F)c1` [Example 2, 6-Benzyl-7-(3-fluorobenzyl)-3-(tetrahydro-2H-pyran-4-yl)imidazo[1,5-a]pyrazin-8(7H)-one]: the IC50 in test [1] was found to be 11 nM; in test [2] it was 51 nM; in test [4], 14 nM. In test [3], the inhibition at 10 µM is -14%.

For `O=c1c2cnc(C3CCOCC3)n2cc(Cc2ccccc2)n1CC1CCCCC1` [Example 3, 6-Benzyl-7-(cyclohexylmethyl)-3-(tetrahydro-2H-pyran-4-yl)imidazo[1,5-a]pyrazin-8(7H)-one], the concentration for half-maximal inhibition (IC50) was 6 nM in test [1], 8 nM in test [2] and 12 nM in test [4]. In addition, the inhibition at 10 µM in test [3] was -6%.

Consider `Cc1cn2c(C3CCOCC3)ncc2c(=O)n1CC1CCCCC1` [Example 4, 7-(Cyclohexylmethyl)-6-methyl-3-(tetrahydro-2H-pyran-4-yl)imidazo[1,5-a]pyrazin-8(7H)-one], for which the figures for the IC50 in test [1], in test [2] and in test [4] were 7 nM, 11 nM and 25 nM, respectively. Also, the inhibition at 10 µM in test [3] is -5%.

As for `Cc1cn2c(C3CCOCC3)ncc2c(=O)n1Cc1cccc(F)c1` [Example 5, 7-(3-Fluorobenzyl)-6-methyl-3-(tetrahydro-2H-pyran-4-yl)imidazo[1,5-a]pyrazin-8(7H)-one], the IC50 in test [1] amounted to 14 nM; in test [2], 108 nM; in test [4] it was 120 nM. The inhibition at 10 µM in test [3] is 18%.

`O=c1c2cnc(C3CC3)n2ccn1Cc1cccc(F)c1` [Example 6, 3-Cyclopropyl-7-(3-fluorobenzyl)imidazo[1,5-a]pyrazin-8(7H)-one]: the IC50 in test [1] was determined as 290 nM. Further, the inhibition at 2 µM was 68% in test [2] and 81% in test [4]. The inhibition at 10 µM in test [3] amounted to 25%.

Turning to `O=c1c2cnc(C3CC3)n2ccn1CC1CCCC1` [Example 7, 7-(Cyclopentylmethyl)-3-cyclopropylimidazo[1,5-a]pyrazin-8(7H)-one], the IC50 in test [1] was determined as 230 nM. Also, the inhibition at 2 µM in test [2] was determined as 60%; in test [4], 85%. In addition, in test [3], the inhibition at 10 µM stood at 1%.

As for `O=c1c2cnc(C3CC3)n2ccn1CC1CCCCC1` [Example 8, 7-(Cyclohexylmethyl)-3-cyclopropylimidazo[1,5-a]pyrazin-8(7H)-one], the IC50 was found to be 100 nM in test [1], 252 nM in test [2] and 67 nM in test [4]. Besides, the inhibition at 10 µM in test [3] stood at 9%.

Turning to `O=c1c2cnc(C3CCOCC3)n2ccn1Cc1cccc(F)c1` [Example 9, 7-(3-Fluorobenzyl)-3-(tetrahydro-2H-pyran-4-yl)imidazo[1,5-a]pyrazin-8(7H)-one], in test [1], the IC50 stood at 170 nM. The values for the inhibition at 2 µM in test [2] and in test [4] were 68% and 90%, respectively. For the same molecule, the inhibition at 10 µM in test [3] worked out at 2%.

For `O=c1c2cnc(C3CCOCC3)n2ccn1CC1CCCC1` [Example 10, 7-(Cyclopentylmethyl)-3-(tetrahydro-2H-pyran-4-yl)imidazo[1,5-a]pyrazin-8(7H)-one], in test [1], the IC50 worked out at 79 nM. For the same molecule, the inhibition at 2 µM came to 73% in test [2] and 88% in test [4]. Further, the inhibition at 10 µM in test [3] amounted to 8%.

Consider `O=c1c2cnc(C3CCOCC3)n2ccn1CC1CCCCC1` [Example 11, 7-(Cyclohexylmethyl)-3-(tetrahydro-2H-pyran-4-yl)imidazo[1,5-a]pyrazin-8(7H)-one], for which the values for the IC50 in test [1], in test [2] and in test [4] were 43 nM, 113 nM and 72 nM, respectively. In addition, in test [3], the inhibition at 10 µM came to 18%.

In the case of `O=c1c2cnc(C3CCOCC3)n2ccn1CC1CCCCCC1` [Example 12, 7-(Cycloheptylmethyl)-3-(tetrahydro-2H-pyran-4-yl)imidazo[1,5-a]pyrazin-8(7H)-one], the IC50 is 16 nM in test [1], 30 nM in test [2] and 21 nM in test [4]. In test [3], the inhibition at 10 µM was 12%.

Turning to `O=c1c2cnc(C3CC3)n2ccn1CC1CCCCCC1` [Example 13, 7-(Cycloheptylmethyl)-3-cyclopropylimidazo[1,5-a]pyrazin-8(7H)-one], the figures for the IC50 in test [1], in test [2] and in test [4] were 62 nM, 87 nM and 50 nM, respectively. Further, the inhibition at 10 µM in test [3] is 7%.

With `Cc1cn2c(C3CCOCC3)ncc2c(=O)n1Cc1ccc(Cl)cc1` [Example 14, 7-(4-Chlorobenzyl)-6-methyl-3-(tetrahydro-2H-pyran-4-yl)imidazo[1,5-a]pyrazin-8(7H)-one], the IC50 in test [1] came to 51 nM; in test [2], 18 nM; in test [4], 15 nM. Also, in test [3], the inhibition at 10 µM amounted to 22%.

As to `O=c1c2cnc(C3CCOCC3)n2cc(Br)n1Cc1cccc(F)c1` [Example 15, 6-Bromo-7-(3-fluorobenzyl)-3-(tetrahydro-2H-pyran-4-yl)imidazo[1,5-a]pyrazin-8(7H)-one], the figures for the concentration for half-maximal inhibition (IC50) in test [1], in test [2] and in test [4] were 15 nM, 58 nM and 115 nM, respectively. Also, the inhibition at 10 µM in test [3] was determined as 15%.

Turning to `Cc1cn2c(C3CCOCC3)ncc2c(=O)n1Cc1ccccc1` [Example 16, 7-Benzyl-6-methyl-3-(tetrahydro-2H-pyran-4-yl)imidazo[1,5-a]pyrazin-8(7H)-one], the IC50 in test [1] stood at 12 nM; in test [2], 85 nM; in test [4] it was 57 nM. For the same molecule, in test [3], the inhibition at 10 µM turned out to be 19%.

Regarding `Cc1cn2c(C3CCOCC3)ncc2c(=O)n1Cc1ccccc1F` [Example 17, 7-(2-Fluorobenzyl)-6-methyl-3-(tetrahydro-2H-pyran-4-yl)imidazo[1,5-a]pyrazin-8(7H)-one], the IC50 was 9 nM in test [1], 42 nM in test [2] and 36 nM in test [4]. Further, the inhibition at 10 µM in test [3] came out at 7%.

Take `Cc1cn2c(C3CCOCC3)ncc2c(=O)n1Cc1cccc(Cl)c1` [Example 18, 7-(3-Chlorobenzyl)-6-methyl-3-(tetrahydro-2H-pyran-4-yl)imidazo[1,5-a]pyrazin-8(7H)-one]: the IC50 in test [1] turned out to be 8 nM; in test [2], 57 nM; in test [4] it was 49 nM. Besides, the inhibition at 10 µM in test [3] turned out to be 31%.

For the molecule `Cc1cn2c(C3CCOCC3)ncc2c(=O)n1Cc1ccccc1Cl` [Example 19, 7-(2-Chlorobenzyl)-6-methyl-3-(tetrahydro-2H-pyran-4-yl)imidazo[1,5-a]pyrazin-8(7H)-one], the IC50 in test [1] was found to be 10 nM; in test [2], 46 nM; in test [4] it was 68 nM. For the same molecule, the inhibition at 10 µM in test [3] amounted to 18%.

For `COc1cccc(Cn2c(C)cn3c(C4CCOCC4)ncc3c2=O)c1` [Example 20, 7-(3-Methoxybenzyl)-6-methyl-3-(tetrahydro-2H-pyran-4-yl)imidazo[1,5-a]pyrazin-8(7H)-one], the half-inhibitory concentration (IC50) is 62 nM in test [1], 416 nM in test [2] and 175 nM in test [4]. Moreover, the inhibition at 10 µM in test [3] is -38%.
